Assay results as given in patent US20240368667A1, “RAPID, LABEL-FREE ANTIBIOTIC SUSCEPTIBILITY OF BACTERIA DIRECTLY FROM POSITIVE BLOOD OR BODILY FLUID/CULTURE” (priority 2021, published 2024).
In brackets after ≈: the same amount, converted by molar mass. Read-outs that look alike come from different tables or passages of the source.

Legend:
P. aeruginosa [1] = assay: Broth microdilution (BMD) MIC; type: cell-based, Pseudomonas aeruginosa; design: key to susceptibility classification, BMD: (S) sensitive; (I) intermediate; (R) resistant; details: broth microdilution; for MIC: Pseudomonas aeruginosa, read-out: Minimum inhibitory concentration, BMD
Method: (§1) Microbroth dilution for minimum inhibitory concentrations (MIC) with and without sucrose recovery. To isolate bacteria without sucrose, culture media from positive BacT/alert FA PLUS aerobic culture bottles (bioMérieux, Durham, NC) was serially diluted and plated onto LB agar (Lennox; Sigma-Aldrich, St. Louis, MO). Bacterial suspensions were prepared by resuspending colonies in CAMHB with incubation on a MaxQ 4000 incubator shaker (Thermo Fisher Scientific, Waltham, MA) at 37° C. and ˜225 rpm for 3 hours. Bacteria recovered via Method 2 were diluted 10-fold in CAMHB. Following incubation or sucrose recovery and dilution, bacterial suspensions were adjusted to ˜0.004 OD600 with CAMHB and a 50-μL aliquot distributed to each well of a 96-well plate containing CAMHB with and without clinically relevant antibiotics (2-fold dilution series). Gram-negative plates included: ceftazidime (3rd generation cephalosporin, RPI corp., Mount Prospect, IL), cefepime (4th generation cephalosporin, Chem-Impex Int'l, Wood Dale, IL), meropenem (carbapenem, Tokyo Chemical Industry, Tokyo, Japan), levofloxacin (quinolone, Alfa Aesar, Haverhill, MA), and tobramycin (aminoglycoside, MP Biomedicals LLC, Santa Ana, CA), while S. aureus plates contained: oxacillin (beta-lactam, Sigma-Aldrich, St. Louis, MO), vancomycin (glycopeptide, Santa Cruz Biotechnology, Dallas, TX), erythromycin (macrolide, Sigma-Aldrich, St. Louis, MO), clindamycin ([…]), and ciprofloxacin (fluoroquinolone, Sigma-Aldrich, St. Louis, MO). Antibiotic plates were incubated at 37° C. for 16-20 hours (gram-negative) or 35° C. for 24 hours (S. aureus), at which time, plates were removed from the incubator and visually inspected for bacterial growth. The MIC was set at the lowest antibiotic concentration at which no growth was detected.

P. aeruginosa 77 = assay: Microbroth dilution MIC with and without sucrose recovery; type: cell-based, Pseudomonas aeruginosa; details: MIC given as multiple of S/I/R; for minimum inhibitory concentration (MIC), Standard: P. aeruginosa 77 recovered by standard plating; for minimum inhibitory concentration (MIC), Sucrose: P. aeruginosa 77 recovered through sucrose (Method 2)
Method: as §1
Influence of Sucrose on Bacterial MIC. To rule out the potential effect of sucrose exposure in bacterial antibiotic susceptibility, microbroth dilution studies were performed on bacteria recovered using standard practices (i.e. plating following positive blood culture) and through selective lysis coupled with centrifugation through the sucrose cushion (Method 2).

E. coli = assay: Broth microdilution (BMD) MIC; type: cell-based, Escherichia coli; design: key to susceptibility classification, BMD: (S) sensitive; (I) intermediate; (R) resistant; details: for MIC: Escherichia coli
Method: as §1

P. aeruginosa [2] = assay: Direct flow cytometric AST (high-throughput flow cytometry, HTFC) of sucrose-recovered bacteria; type: cell-based, Pseudomonas aeruginosa; design: key to susceptibility classification, HTFC: (S) sensitive; (I) intermediate; (R) resistant; details: for MIC: Pseudomonas aeruginosa, read-out: Minimum inhibitory concentration, HTFC
Method: AST workflow using bacteria recovered directly from positive blood culture. A 1-mL aliquot of bacteria recovered using separation method 2 was diluted 10-fold in CAMHB, the OD600 adjusted to ˜0.01, and a 50 μL aliquot distributed into each well of a 96-well plate containing CAMHB with and without ceftazidime, tobramycin, and either meropenem (E. coli and P. aeruginosa) or oxacillin (S. aureus). Following Clinical and Laboratory Standards Institute (CLSI) guidelines^33, 2% sodium chloride (NaCl) was present in wells containing oxacillin to assist in the detection of methicillin-resistant S. aureus (MRSA). […] To account for observed differences in doubling and lag times, E. coli and P. aeruginosa were incubated for 4 hours at 37° C., while S. aureus was incubated for 9 hours at 35° C. After incubation, antibiotic plates were removed from the incubator and directly stored on ice (i.e. no post-processing) until high-throughput flow cytometry (BD LSRFortessa with HTS-system, BD, Franklin Lakes, NJ). No-antibiotic controls and antibiotic-treated samples were handled identically.
MIC Determination by flow cytometry. Because antibiotic effects are observed in both the position of scatter signatures (morphology changes) and count rates (growth inhibition), a modified count rate, accounting for scatter position, was used to evaluate susceptibility. Briefly, no-antibiotic control populations (triplicate) were pooled, binned, and a convex hull boundary set at 1-standard deviation above the background (not including bins with zero counts) was drawn. […] The overlap ratio, measuring changes in morphology, was then computed by dividing the number of sample events within the no-antibiotic control boundary by the total number of events within the sample. As an increase in count rate attributed to viable bacteria in antibiotic-treated samples is not scientifically meaningful, the fractional overlap was multiplied by the minimum of the control and sample count rates to generate a modified count rate accounting for antibiotic-induced morphological changes. All modified count rates were normalized by the average of the no-antibiotic controls. For automatic MIC determination, normalized count rates corresponding to n (index of predicted MIC), n+1, n+2 were iteratively fit to a linear function with a frameshift of n+1 between iterations (FIGS. 8 and 9). […] A threshold of −0.01 instead of zero was used to mitigate the influence of small fluctuations in normalized count rates on susceptibility determinations.

[3] = E. coli Blood Culture A, broth microdilution
[4] = E. coli Blood Culture B, broth microdilution
[5] = E. coli EC37, broth microdilution
[6] = E. coli EC-bank, broth microdilution
[7] = E. coli Mu76, broth microdilution
[8] = E. coli Mu218, broth microdilution
[9] = E. coli Mu890, broth microdilution
[10] = E. coli Blood Culture A, broth microdilution, read-out: Minimum inhibitory concentration, BMD
[11] = E. coli Blood Culture B, broth microdilution, read-out: Minimum inhibitory concentration, BMD
[12] = E. coli EC37, broth microdilution, read-out: Minimum inhibitory concentration, BMD
[13] = E. coli EC-bank, broth microdilution, read-out: Minimum inhibitory concentration, BMD
[14] = E. coli Mu76, broth microdilution, read-out: Minimum inhibitory concentration, BMD
[15] = E. coli Mu218, broth microdilution, read-out: Minimum inhibitory concentration, BMD
[16] = E. coli Mu890, broth microdilution, read-out: Minimum inhibitory concentration, BMD
[17] = P. aeruginosa Blood Culture B, antibiotic 4 hours (37° C.)
[18] = P. aeruginosa Blood Culture C, antibiotic 4 hours (37° C.)
[19] = P. aeruginosa PA7, antibiotic 4 hours (37° C.)
[20] = P. aeruginosa PA46, antibiotic 4 hours (37° C.)
[21] = P. aeruginosa PA49, antibiotic 4 hours (37° C.)
[22] = P. aeruginosa PA81, antibiotic 4 hours (37° C.)
[23] = P. aeruginosa PAO1, antibiotic 4 hours (37° C.)
[24] = 4 h, P. aeruginosa Blood Culture B, antibiotic 4 hours (37° C.)
[25] = 4 h, P. aeruginosa PA7, antibiotic 4 hours (37° C.)
[26] = 4 h, P. aeruginosa PA46, antibiotic 4 hours (37° C.)
[27] = 4 h, P. aeruginosa PA49, antibiotic 4 hours (37° C.)
[28] = 4 h, P. aeruginosa PA81, antibiotic 4 hours (37° C.)
[29] = PAO1, 4 h, P. aeruginosa PAO1, antibiotic 4 hours (37° C.)

## CC(C)(O/N=C(\C(=O)N[C@@H]1C(=O)N2C(C(=O)[O-])=C(C[n+]3ccccc3)CS[C@H]12)c1csc(N)n1)C(=O)O [Ceftazidime, ceftazidime]
P. aeruginosa [1]; P. aeruginosa Blood Culture B
  susceptibility classification, BMD: (S)
  MIC: 4 µg/mL (≈ 7.32 µM)
P. aeruginosa [1]; P. aeruginosa Blood Culture C
  susceptibility classification, BMD: (S)
  MIC: 1 µg/mL (≈ 1.83 µM)
P. aeruginosa [1]; P. aeruginosa PA7
  susceptibility classification, BMD: (R)
  MIC: 128 µg/mL (≈ 234 µM)
P. aeruginosa [1]; P. aeruginosa PA46
  susceptibility classification, BMD: (S)
  MIC: 1 µg/mL (≈ 1.83 µM)
P. aeruginosa [1]; P. aeruginosa PA49
  susceptibility classification, BMD: (S)
  MIC: 2 µg/mL (≈ 3.66 µM)
P. aeruginosa [1]; P. aeruginosa PA81
  susceptibility classification, BMD: (S)
  MIC: 4 µg/mL (≈ 7.32 µM)
P. aeruginosa [1]; P. aeruginosa PAO1
  susceptibility classification, BMD: (S)
P. aeruginosa [1]; PAO1, P. aeruginosa PAO1
  MIC: 1 µg/mL (≈ 1.83 µM)
P. aeruginosa 77
  minimum inhibitory concentration (MIC), Standard: ½S
  minimum inhibitory concentration (MIC), Sucrose: ¼S
E. coli; [3]
  susceptibility classification, BMD: (R)
E. coli; [4]
  susceptibility classification, BMD: (R)
E. coli; [5]
  susceptibility classification, BMD: (R)
E. coli; [6]
  susceptibility classification, BMD: (R)
E. coli; [7]
  susceptibility classification, BMD: (S)
E. coli; [8]
  susceptibility classification, BMD: (R)
E. coli; [9]
  susceptibility classification, BMD: (S)
E. coli; [10]
  MIC: 16 µg/mL (≈ 29.3 µM)
E. coli; [11]
  MIC: 64 µg/mL (≈ 117 µM)
E. coli; [12]
  MIC: 32 µg/mL (≈ 58.5 µM)
E. coli; [13]
  MIC: 32 µg/mL (≈ 58.5 µM)
E. coli; [14]
  MIC: 2 µg/mL (≈ 3.66 µM)
E. coli; [15]
  MIC: 32 µg/mL (≈ 58.5 µM)
E. coli; [16]
  MIC: 0.5 µg/mL (≈ 0.915 µM)
P. aeruginosa [2]; [17]
  susceptibility classification, HTFC: (S)
P. aeruginosa [2]; [18]
  susceptibility classification, HTFC: (S)
P. aeruginosa [2]; [19]
  susceptibility classification, HTFC: (S)
P. aeruginosa [2]; [20]
  susceptibility classification, HTFC: (S)
P. aeruginosa [2]; [21]
  susceptibility classification, HTFC: (S)
P. aeruginosa [2]; [22]
  susceptibility classification, HTFC: (S)
P. aeruginosa [2]; [23]
  susceptibility classification, HTFC: (S)
P. aeruginosa [2]; [24]
  MIC: 4 µg/mL (≈ 7.32 µM)
P. aeruginosa [2]; 4 h, P. aeruginosa Blood Culture C, antibiotic 4 hours (37° C.)
  MIC: 2 µg/mL (≈ 3.66 µM)
P. aeruginosa [2]; [25]
  MIC: 8 µg/mL (≈ 14.6 µM)
P. aeruginosa [2]; [26]
  MIC: 2 µg/mL (≈ 3.66 µM)
P. aeruginosa [2]; [27]
  MIC: 4 µg/mL (≈ 7.32 µM)
P. aeruginosa [2]; [28]
  MIC: 8 µg/mL (≈ 14.6 µM)
P. aeruginosa [2]; [29]
  MIC: 1 µg/mL (≈ 1.83 µM)

## NC[C@H]1O[C@H](O[C@H]2[C@H](O)[C@@H](O[C@H]3O[C@H](CO)[C@@H](O)[C@H](N)[C@H]3O)[C@H](N)C[C@@H]2N)[C@H](N)C[C@@H]1O [Tobramycin, tobramycin]
P. aeruginosa [1]; P. aeruginosa Blood Culture B
  susceptibility classification, BMD: (S)
  MIC: 2 µg/mL (≈ 4.28 µM)
P. aeruginosa [1]; P. aeruginosa Blood Culture C
  susceptibility classification, BMD: (S)
  MIC: ≤ 0.125 µg/mL
P. aeruginosa [1]; P. aeruginosa PA7
  susceptibility classification, BMD: (R)
  MIC: > 64 µg/mL
P. aeruginosa [1]; P. aeruginosa PA46
  susceptibility classification, BMD: (S)
  MIC: 0.5 µg/mL (≈ 1.07 µM)
P. aeruginosa [1]; P. aeruginosa PA49
  susceptibility classification, BMD: (S)
  MIC: 0.5 µg/mL (≈ 1.07 µM)
P. aeruginosa [1]; P. aeruginosa PA81
  susceptibility classification, BMD: (S)
  MIC: 0.5 µg/mL (≈ 1.07 µM)
P. aeruginosa [1]; P. aeruginosa PAO1
  susceptibility classification, BMD: (S)
P. aeruginosa [1]; PAO1, P. aeruginosa PAO1
  MIC: 0.5 µg/mL (≈ 1.07 µM)
P. aeruginosa 77
  minimum inhibitory concentration (MIC), Standard: ⅛S
  minimum inhibitory concentration (MIC), Sucrose: ⅛S
E. coli; [3]
  susceptibility classification, BMD: (S)
E. coli; [4]
  susceptibility classification, BMD: (I)
E. coli; [5]
  susceptibility classification, BMD: (S)
E. coli; [6]
  susceptibility classification, BMD: (S)
E. coli; [7]
  susceptibility classification, BMD: (S)
E. coli; [8]
  susceptibility classification, BMD: (R)
E. coli; [9]
  susceptibility classification, BMD: (S)
E. coli; [10]
  MIC: 1 µg/mL (≈ 2.14 µM)
E. coli; [11]
  MIC: 8 µg/mL (≈ 17.1 µM)
E. coli; [12]
  MIC: 0.25 µg/mL (≈ 0.535 µM)
E. coli; [13]
  MIC: 0.5 µg/mL (≈ 1.07 µM)
E. coli; [14]
  MIC: 0.5 µg/mL (≈ 1.07 µM)
E. coli; [15]
  MIC: 32 µg/mL (≈ 68.4 µM)
E. coli; [16]
  MIC: 0.5 µg/mL (≈ 1.07 µM)
E. coli; E. coli, strain not named (FIG. 14), read-out: MIC as determined by BMD
  MIC: 0.25 µg/mL (≈ 0.535 µM)
P. aeruginosa [2]; [17]
  susceptibility classification, HTFC: (S)
P. aeruginosa [2]; [18]
  susceptibility classification, HTFC: S
P. aeruginosa [2]; [19]
  susceptibility classification, HTFC: (R)
P. aeruginosa [2]; [20]
  susceptibility classification, HTFC: (S)
P. aeruginosa [2]; [21]
  susceptibility classification, HTFC: (S)
P. aeruginosa [2]; [22]
  susceptibility classification, HTFC: (S)
P. aeruginosa [2]; [23]
  susceptibility classification, HTFC: (S)
P. aeruginosa [2]; [24]
  MIC: 0.25 µg/mL (≈ 0.535 µM)
P. aeruginosa [2]; [25]
  MIC: > 16 µg/mL
P. aeruginosa [2]; [26]
  MIC: 1 µg/mL (≈ 2.14 µM)
P. aeruginosa [2]; [27]
  MIC: 1 µg/mL (≈ 2.14 µM)
P. aeruginosa [2]; [28]
  MIC: 1 µg/mL (≈ 2.14 µM)
P. aeruginosa [2]; [29]
  MIC: 2 µg/mL (≈ 4.28 µM)
